Results as given in patent publication US20230278984A1 (Global Blood Therapeutics, Inc., priority 2020, published 2023).

Molecular target: T1, Human pyruvate kinase R (PKR) (Homo sapiens, UniProt P30613)
T1 construct: Human pyruvate kinase R (PKR), residues 14-574; 6x-His (N, cleaved yes); 8x-Arg (N, cleaved yes); SUMO (N, cleaved yes); host or cells: E. coli
Assay: Biochemical assay for activation of pyruvate kinase R (Kinase-Glo luminescence measurement of ATP generation)
Settings: for AC50: PKR biochemical assay, 0.1 nM PKR, 0.3 mM ADP, 2 mM FBP, 0.1 mM PEP; for Emax: maximal activation level relative to the activation level achieved by the literature compound AG-348 @ 10 μM
How it was run: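 Recombinant human PKR (residues 14-574), E. coli-expressed with His-Arg-SUMO tag removed, purified by Ni-NTA, anion exchange and size exclusion. Activation measured as ATP generation via Kinase-Glo luminescence.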

T1 sequence (P30613 14-574): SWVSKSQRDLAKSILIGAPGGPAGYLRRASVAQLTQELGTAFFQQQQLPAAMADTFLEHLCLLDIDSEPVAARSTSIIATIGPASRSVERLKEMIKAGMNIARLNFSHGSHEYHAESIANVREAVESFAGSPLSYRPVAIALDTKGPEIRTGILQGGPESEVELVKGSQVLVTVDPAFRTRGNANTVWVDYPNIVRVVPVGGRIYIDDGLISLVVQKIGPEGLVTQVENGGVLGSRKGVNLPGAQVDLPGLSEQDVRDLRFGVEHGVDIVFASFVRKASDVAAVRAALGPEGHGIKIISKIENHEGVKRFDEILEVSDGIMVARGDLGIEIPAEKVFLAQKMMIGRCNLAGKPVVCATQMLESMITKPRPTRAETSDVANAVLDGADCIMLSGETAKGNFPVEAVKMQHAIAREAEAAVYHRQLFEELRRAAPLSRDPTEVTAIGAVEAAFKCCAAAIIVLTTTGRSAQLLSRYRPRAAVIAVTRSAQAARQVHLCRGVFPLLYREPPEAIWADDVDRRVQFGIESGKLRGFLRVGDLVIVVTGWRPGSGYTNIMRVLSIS

| AC50 [nM] | Emax [%] | Structure (SMILES) |
| --- | --- | --- |
| 270 | 85 | Cc1nc(CNC(=O)NCc2ncnn2-c2ccc3cnccc3c2)n(-c2ccc(Cl)c(F)c2)n1 [Compound 82, 1-{[1-(4-chloro-3-fluorophenyl)-3-methyl-1H-1,2,4-triazol-5-yl]methyl}-3-{[1-(isoquinolin-6-yl)-1H-1,2,4-triazol-5-yl]methyl}urea] |
| 36 | 67 | Cc1nc(CNC(=O)NCc2ncnn2-c2ccc(Cl)c(F)c2)n(-c2ccc3cccnc3c2)n1 [Compound 85, 1-{[1-(4-chloro-3-fluorophenyl)-1H-1,2,4-triazol-5-yl]methyl}-3-{[3-methyl-1-(quinolin-7-yl)-1H-1,2,4-triazol-5-yl]methyl}urea] |
| 66 | 90 | Cc1nc(CNC(=O)NCc2nnnn2-c2ccc(Cl)c(F)c2)n(-c2ccc3cccnc3c2)n1 [Compound 86, 1-{[1-(4-chloro-3-fluorophenyl)-1H-1,2,3,4-tetrazol-5-yl]methyl}-3-{[3-methyl-1-(quinolin-7-yl)-1H-1,2,4-triazol-5-yl]methyl}urea] |
| 70 | 68 | Cc1nc(CNC(=O)NCc2ncnn2-c2ccc3cncnc3c2)n(-c2ccc(Cl)c(F)c2)n1 [Compound 88, 1-{[1-(4-chloro-3-fluorophenyl)-3-methyl-1H-1,2,4-triazol-5-yl]methyl}-3-{[1-(quinazolin-7-yl)-1H-1,2,4-triazol-5-yl]methyl}urea] |
| 52 | 72 | CCc1nc(CNC(=O)NCc2ncnn2-c2ccc(Cl)c(F)c2)n(-c2ccc3cccnc3c2)n1 [Compound 92, 1-{[1-(4-chloro-3-fluorophenyl)-1H-1,2,4-triazol-5-yl]methyl}-3-{[3-ethyl-1-(quinolin-7-yl)-1H-1,2,4-triazol-5-yl]methyl}urea] |
| 510 | 92 | COCCc1nc(CNC(=O)NCc2ncnn2-c2ccc3cccnc3c2)n(-c2ccc(Cl)c(F)c2)n1 [Compound 97, 1-{[1-(4-chloro-3-fluorophenyl)-3-(2-methoxyethyl)-1H-1,2,4-triazol-5-yl]methyl}-3-{[1-(quinolin-7-yl)-1H-1,2,4-triazol-5-yl]methyl}urea] |
| 35 | 71 | Cc1nc(CNC(=O)NCc2ncnn2-c2cc(F)c3ncccc3c2)n(-c2ccc(Cl)c(F)c2)n1 [Compound 102] |
| 110 | 73 | Cc1nc(CNC(=O)NCc2ncnn2-c2cc(C)c3nccnc3c2)n(-c2ccc(Cl)c(F)c2)n1 [Compound 103, 1-{[1-(4-chloro-3-fluorophenyl)-3-methyl-1H-1,2,4-triazol-5-yl]methyl}-3-{[1-(8-methylquinoxalin-6-yl)-1H-1,2,4-triazol-5-yl]methyl}urea] |
| 36 | 80 | O=C(NCc1ncnn1-c1ccc2cccnc2c1)NCc1nc(CF)nn1-c1ccc(Cl)c(F)c1 [Compound 104, 1-{[1-(4-chloro-3-fluorophenyl)-3-(fluoromethyl)-1H-1,2,4-triazol-5-yl]methyl}-3-{[1-(quinolin-7-yl)-1H-1,2,4-triazol-5-yl]methyl}urea] |
| 880 | 59 | Cc1nc(CNC(=O)NCc2ncnn2-c2cc(C)c3cncnc3c2)n(-c2ccc(Cl)c(F)c2)n1 [Compound 105, 1-{[1-(4-chloro-3-fluorophenyl)-3-methyl-1H-1,2,4-triazol-5-yl]methyl}-3-{[1-(5-methylquinazolin-7-yl)-1H-1,2,4-triazol-5-yl]methyl}urea] |

Continued, compound first:

| Structure (SMILES) | AC50 [nM] | Emax [%] |
| --- | --- | --- |
| O=C(NCc1ncnn1-c1ccc2cccnc2c1)NCc1nnnn1-c1ccc(Cl)c(F)c1 [Compound 80, 1-{[1-(4-chloro-3-fluorophenyl)-1H-1,2,3,4-tetrazol-5-yl]methyl}-3-{[1-(quinolin-7-yl)-1H-1,2,4-triazol-5-yl]methyl}urea] | 200 | 106 |
| O=C(NCc1ncnn1-c1ccc2cccnc2c1)NCc1ncnn1-c1ccc2cccnc2c1 [Compound 81, 1,3-bis({[1-(quinolin-7-yl)-1H-1,2,4-triazol-5-yl]methyl})urea] | 280 | 64 |
| O=C(NCc1ncnn1-c1ccc2cccnc2c1)NCc1nc(C2CC2)nn1-c1ccc(Cl)c(F)c1 [Compound 83, 1-{[1-(4-chloro-3-fluorophenyl)-3-cyclopropyl-1H-1,2,4-triazol-5-yl]methyl}-3-{[1-(quinolin-7-yl)-1H-1,2,4-triazol-5-yl]methyl}urea] | 72 | 83 |
| Cc1nc(CNC(=O)NCc2nc(C)nn2-c2ccc3cccnc3c2)n(-c2ccc3cccnc3c2)n1 [Compound 84, 1,3-bis({[3-methyl-1-(quinolin-7-yl)-1H-1,2,4-triazol-5-yl]methyl})urea] | 520 | 94 |
| Cc1nc(CNC(=O)NCc2nc(C)nn2-c2ccc3cccnc3c2)n(-c2ccc(Cl)c(F)c2)n1 [Compound 87, 1-{[1-(4-chloro-3-fluorophenyl)-3-methyl-1H-1,2,4-triazol-5-yl]methyl}-3-{[3-methyl-1-(quinolin-7-yl)-1H-1,2,4-triazol-5-yl]methyl}urea] | 83 | 87 |
| Cc1nc(CNC(=O)NCc2n[nH]c(=O)n2-c2ccc(Cl)c(F)c2)n(-c2ccc(Cl)c(F)c2)n1 [Compound 89, 1-{[1-(4-chloro-3-fluorophenyl)-3-methyl-1H-1,2,4-triazol-5-yl]methyl}-3-{[4-(4-chloro-3-fluorophenyl)-5-oxo-4,5-dihydro-1H-1,2,4-triazol-3-yl]methyl}urea] | 31 | 91 |
| Cc1nc(CNC(=O)NCc2nn(C)c(=O)n2-c2ccc(Cl)c(F)c2)n(-c2ccc(Cl)c(F)c2)n1 [Compound 90, 3-{[4-(4-chloro-3-fluorophenyl)-1-methyl-5-oxo-4,5-dihydro-1H-1,2,4-triazol-3-yl]methyl}-1-{[1-(4-chloro-3-fluorophenyl)-3-methyl-1H-1,2,4-triazol-5-yl]methyl}urea] | 40 | 97 |
| O=C(NCc1ncnn1-c1ccc(Cl)c(F)c1)NCc1nc(C2CC2)nn1-c1ccc2cccnc2c1 [Compound 91, 1-{[1-(4-chloro-3-fluorophenyl)-1H-1,2,4-triazol-5-yl]methyl}-3-{[3-cyclopropyl-1-(quinolin-7-yl)-1H-1,2,4-triazol-5-yl]methyl}urea] | 49 | 61 |
| Cc1nc(CNC(=O)NCc2nc(CO)nn2-c2ccc(Cl)c(F)c2)n(-c2ccc3cccnc3c2)n1 [Compound 93, 1-{[1-(4-chloro-3-fluorophenyl)-3-(hydroxymethyl)-1H-1,2,4-triazol-5-yl]methyl}-3-{[3-methyl-1-(quinolin-7-yl)-1H-1,2,4-triazol-5-yl]methyl}urea] | 150 | 100 |
| Cc1nc(CNC(=O)NCc2nc(CCO)nn2-c2ccc(Cl)c(F)c2)n(-c2ccc3cccnc3c2)n1 [Compound 94, 1-{[1-(4-chloro-3-fluorophenyl)-3-(2-hydroxyethyl)-1H-1,2,4-triazol-5-yl]methyl}-3-{[3-methyl-1-(quinolin-7-yl)-1H-1,2,4-triazol-5-yl]methyl}urea] | 730 | 87 |
| COC(=O)c1cc(-n2nc(C)nc2CNC(=O)NCc2nc(C)nn2-c2ccc(Cl)c(F)c2)ccc1Cl [Compound 95, methyl 2-chloro-5-(5-{[({[1-(4-chloro-3-fluorophenyl)-3-methyl-1H-1,2,4-triazol-5-yl]methyl}carbamoyl)amino]methyl}-3-methyl-1H-1,2,4-triazol-1-yl)benzoate] | 68 | 87 |
| Cc1nc(CNC(=O)NCc2nc(C)nn2-c2ccc(Cl)c(CO)c2)n(-c2ccc(Cl)c(F)c2)n1 [Compound 96, 1-({1-[4-chloro-3-(hydroxymethyl)phenyl]-3-methyl-1H-1,2,4-triazol-5-yl}methyl)-3-{[1-(4-chloro-3-fluorophenyl)-3-methyl-1H-1,2,4-triazol-5-yl]methyl}urea] | 34 | 100 |
| O=C(NCc1ncnn1-c1ccc2cccnc2c1)NCc1n[nH]c(=O)n1-c1ccc(Cl)c(F)c1 [Compound 98, 3-{[4-(4-chloro-3-fluorophenyl)-5-oxo-4,5-dihydro-1H-1,2,4-triazol-3-yl]methyl}-1-{[1-(quinolin-7-yl)-1H-1,2,4-triazol-5-yl]methyl}urea] | 71 | 60 |
| CNCc1cc(-n2nc(C)nc2CNC(=O)NCc2nc(C)nn2-c2ccc(Cl)c(F)c2)ccc1Cl [Compound 99, 1-[(1-{4-chloro-3-[(methylamino)methyl]phenyl}-3-methyl-1H-1,2,4-triazol-5-yl)methyl]-3-{[1-(4-chloro-3-fluorophenyl)-3-methyl-1H-1,2,4-triazol-5-yl]methyl}urea] | 69 | 69 |
| COCCc1nc(CNC(=O)NCc2nc(C)nn2-c2ccc3cccnc3c2)n(-c2ccc(Cl)c(F)c2)n1 [Compound 100] | 510 | 106 |
| Cc1nc(CNC(=O)NCc2ncnn2-c2cc(F)c3nccnc3c2)n(-c2ccc(Cl)c(F)c2)n1 [Compound 101, 1-{[1-(4-chloro-3-fluorophenyl)-3-methyl-1H-1,2,4-triazol-5-yl]methyl}-3-{[1-(8-fluoroquinoxalin-6-yl)-1H-1,2,4-triazol-5-yl]methyl}urea] | 93 | 77 |
| Cc1nc(CNC(=O)NCC2=NC3(CC3)C(=O)N2Cc2ccc(F)cc2)n(-c2ccc(Cl)c(F)c2)n1 [Compound 106, 1-{[1-(4-chloro-3-fluorophenyl)-3-methyl-1H-1,2,4-triazol-5-yl]methyl}-3-({6-[(4-fluorophenyl)methyl]-7-oxo-4,6-diazaspiro[2.4]hept-4-en-5-yl}methyl)urea] | 71 | 125 |
